System: 4T1 cells
Assay: Combination cell viability experiments in 4T1 cells
Format: cell-based
Conditions: 4T1, Ferrostain-1 10 μM
Description: FIG. 14 depicts a combination experiment indicates the involvement of thiol modulation by IITK3001/IITK3002 on the viability of Huh-7 and 4T1 cells, in accordance with an embodiment of the present invention. The viability of screened cancer cells was recorded using a luminescence-based CellTiter-Glo® assay for the ATP quantification. The screening concentration of (a) IITK3001 and (b) IITK3002 ranged from 10 uM to 4.5 nM with an 8-point-3-fold dilution series in DMEM medium (>0.1% DMSO as control). For combination experiments, 500 μM of NAC or glutathione and 25 μM of BSO were used. Each experiment was conducted in more than two biological replicates with three technical replicates. The error bar is a representation of standard deviation among the technical replicates.
FIG. 17 depicts IITK3001-mediated ferroptosis induction as a cell death mechanism in 4T1 cells is recorded, in accordance with an embodiment of the present invention. The screening concentration of (a) IITK3001 and (b) IITK3002 ranged from 10 μM to 4.5 nM with an 8-point-3-fold dilution series. […]
FIG. 19 depicts IITK3001-mediated ferroptosis induction as a cell death mechanism in 4T1 cells is recorded, in accordance with an embodiment of the present invention. […]

SMILES: CN(C(=O)CCl)c1ccccc1C(=O)c1ccccc1 [IITK3001, N-(2-benzoylphenyl)-2-chloro-N-methylacetamide]
- effect of Fer-1 combination in 4T1 cells: negligible

From patent US20250099407A1, “2-AMINO BENZOPHENONE DERIVATIVES FOR TARGETED FERROPTOSIS INDUCTION IN CANCER THERAPY” (INDIAN INSTITUTE OF TECHNOLOGY KANPUR, priority 2023, published 2025)
